Consider 23 compounds from patent US9296745B2, “Diacylglycerol acyltransferase 2 inhibitors” (Pfizer Inc., priority 2012, dated 2016).

The target in the first experiment is Human DGAT2 (hDGAT2) (Homo sapiens (Human), UniProt Q96PD7). Description: In vitro DGAT2 assay, IC50 determination with hDGAT2 membrane fraction. Type of experiment: biochemical. To be noted: geometric mean; background for complete inhibition of DGAT2 obtained with 50 μM (1R,2R)-2-({3′-Fluoro-4′-[(6-fluoro-1,3-benzothiazol-2-yl)amino]-1,1′-biphenyl-4-yl}carbonyl)cyclopentanecarboxylic acid; read-out: DGAT2 IC50. In outline: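 CHAPS-solubilized membrane fraction of FLAG-tagged hDGAT2 from baculovirus-infected SF9 cells (0.01 mg/mL) in 100 mM Hepes-NaOH pH 7.4, 20 mM MgCl2, 200 nM methyl arachidonyl fluorophosphonate; compounds pre-incubated 20 min with 0.04% BSA. Reaction 40 min at room temperature, stopped with H3PO4. [^14C]tridecanoylglycerol in organic phase counted; 11-point geometric mean IC50.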
Sequence of Human DGAT2 (hDGAT2) (Q96PD7 whole entry): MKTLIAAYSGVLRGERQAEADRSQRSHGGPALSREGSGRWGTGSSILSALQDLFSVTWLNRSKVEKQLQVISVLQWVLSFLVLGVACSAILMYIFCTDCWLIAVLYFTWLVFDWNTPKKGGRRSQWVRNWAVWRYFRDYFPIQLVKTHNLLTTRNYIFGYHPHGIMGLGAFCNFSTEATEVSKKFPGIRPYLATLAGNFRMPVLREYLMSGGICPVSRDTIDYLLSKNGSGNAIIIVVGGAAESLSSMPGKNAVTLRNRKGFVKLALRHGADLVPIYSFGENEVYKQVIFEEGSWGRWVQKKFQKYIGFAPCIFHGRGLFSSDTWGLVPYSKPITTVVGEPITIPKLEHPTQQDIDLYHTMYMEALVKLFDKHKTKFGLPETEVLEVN
The IC50 is the concentration at which inhibition is half-maximal. For `O=C([C@@H]1CCCN(c2ccc3nc(-c4ccnc(C5CC5)n4)[nH]c3n2)C1)N1CC[C@H](O)C1` [Example 132, ((R)-1-(2-(2-Cyclopropylpyrimidin-4-yl)-3H-imidazo[4,5-b]pyridin-5-yl)piperidin-3-yl)((S)-3-hydroxypyrrolidin-1-yl)methanone], the IC50 was found to be 695 nM.
In the case of `c1cc(-c2nc3ccc(N4CCCC(c5ncc6n5CCC6)C4)nc3[nH]2)nc(C2CC2)n1` (centres unmarked) [Example 133, 2-(2-Cyclopropylpyrimidin-4-yl)-5-(3-(6,7-dihydro-5H-pyrrolo[1,2-c]imidazol-3-yl)piperidin-1-yl)-3H-imidazo[4,5-b]pyridine], the half-inhibitory concentration (IC50) turned out to be 252 nM.
Turning to `c1cc(-c2nc3ccc(N4CCC[C@@H](c5ncc6n5CCC6)C4)nc3[nH]2)nc(C2CC2)n1` [Example 134, (R)-2-(2-Cyclopropylpyrimidin-4-yl)-5-(3-(6,7-dihydro-5H-pyrrolo[1,2-c]imidazol-3-yl)piperidin-1-yl)-3H-imidazo[4,5-b]pyridine], the IC50 worked out at 210 nM.
With `c1cc(-c2nc3ccc(N4CCC[C@H](c5ncc6n5CCC6)C4)nc3[nH]2)nc(C2CC2)n1` [Example 135, (S)-2-(2-cyclopropylpyrimidin-4-yl)-5-(3-(6,7-dihydro-5H-pyrrolo[1,2-c]imidazol-3-yl)piperidin-1-yl)-3H-imidazo[4,5-b]pyridine], the concentration for half-maximal inhibition (IC50) worked out at 4240 nM.
Turning to `O=C([C@@H]1CCCN(c2nc3[nH]c(-c4ccnc(C5CC5)n4)nc3cc2F)C1)N1CCCC1` [Example 136, (R)-(1-(2-(2-Cyclopropylpyrimidin-4-yl)-6-fluoro-3H-imidazo[4,5-b]pyridin-5-yl)piperidin-3-yl)(pyrrolidin-1-yl)methanone], the half-inhibitory concentration (IC50) came out at 6.32 nM.
For the compound `O=C([C@@H]1CCCN(c2ccc3nc(C4(N5CCOCC5=O)CC4)[nH]c3n2)C1)N1CCCC1` [Example 137, (R)-4-(1-(5-(3-(Pyrrolidine-1-carbonyl)piperidin-1-yl)-3H-imidazo[4,5-b]pyridin-2-yl)cyclopropyl)morpholin-3-one], the IC50 is 1280 nM.
As to `O=C([C@@H]1CCCN(c2cnc3nc(-c4ccnc(C5CC5)n4)[nH]c3n2)C1)N1CCCC1` [Example 138, (R)-(1-(2-(2-Cyclopropylpyrimidin-4-yl)-1H-imidazo[4,5-b]pyrazin-6-yl)piperidin-3-yl)(pyrrolidin-1-yl)methanone], the half-maximal inhibitory concentration (IC50) was determined as 71.6 nM.
Consider `O=C([C@@H]1CCCN(c2ccc3nc(-c4cccc(C5(O)CC5)n4)[nH]c3n2)C1)N1CCCC1` [Example 139, (R)-(1-(2-(6-(1-Hydroxycyclopropyl)pyridin-2-yl)-3H-imidazo[4,5-b]pyridin-5-yl)piperidin-3-yl)(pyrrolidin-1-yl)methanone], for which the IC50 turned out to be 62.3 nM.
Consider `CC(C)(O)c1csc(-c2nc3ccc(N4CCC[C@@H](C(=O)N5CCCC5)C4)nc3[nH]2)n1` [Example 140, (R)-(1-(2-(4-(2-Hydroxypropan-2-yl)thiazol-2-yl)-3H-imidazo[4,5-b]pyridin-5-yl)piperidin-3-yl)(pyrrolidin-1-yl)methanone], for which the IC50 worked out at 207 nM.
As to `O=C([C@H]1CN(c2ccc3nc(-c4cccc(C5CC5)n4)[nH]c3n2)CCO1)N1CCCC1` [Example 142, (R)-(4-(2-(6-Cyclopropylpyridin-2-yl)-3H-imidazo[4,5-b]pyridin-5-yl)morpholin-2-yl)(pyrrolidin-1-yl)methanone], the IC50 turned out to be 24.8 nM.
As for `O=C([C@H]1CN(c2ccc3nc(-c4cccc(C(F)(F)F)n4)[nH]c3n2)CCO1)N1CCCC1` [Example 143, (R)-Pyrrolidin-1-yl(4-(2-(6-(trifluoromethyl)pyridin-2-yl)-3H-imidazo[4,5-b]pyridin-5-yl)morpholin-2-yl)methanone], the IC50 was determined as 511 nM.
For the compound `FC(F)Oc1cccc(-c2nc3ccc(N4CCO[C@H](c5ccccn5)C4)nc3[nH]2)c1` [Example 145, (S)-4-(2-(3-(difluoromethoxy)phenyl)-3H-imidazo[4,5-b]pyridin-5-yl)-2-(pyridin-2-yl)morpholine], the IC50 is 411 nM.
Same read-out and setting: next, `O=C([C@H]1CN(c2ccc3nc(-c4cncc(C5CC5)n4)[nH]c3n2)CCO1)N1CCCC1` [Example 146, (R)-(4-(2-(6-Cyclopropylpyrazin-2-yl)-3H-imidazo[4,5-b]pyridin-5-yl)morpholin-2-yl)(pyrrolidin-1-yl)methanone]: 401 nM; `O=C([C@@H]1CCCN(c2ccc3nc(-c4ccnc(C5CCC5)n4)[nH]c3n2)C1)N1CCCC1` [Example 147, (R)-(1-(2-(2-Cyclobutylpyrimidin-4-yl)-3H-imidazo[4,5-b]pyridin-5-yl)piperidin-3-yl)(pyrrolidin-1-yl)methanone]: 9.21 nM.
As for `O=C([C@@H]1CCCN(c2ccc3nc(-c4nccc(C5CC5)n4)[nH]c3n2)C1)N1CCOCC1` [Example 149, (R)-(1-(2-(4-Cyclopropylpyrimidin-2-yl)-3H-imidazo[4,5-b]pyridin-5-yl)piperidin-3-yl)(morpholino)methanone], the 50% inhibitory concentration (IC50) came out at 766 nM.
Take `CN(C)C(=O)[C@@H]1CCCN(c2ccc3nc(-c4cccc(C5CC5)n4)[nH]c3n2)C1` [Example 150, (R)-1-(2-(6-Cyclopropylpyridin-2-yl)-3H-imidazo[4,5-b]pyridin-5-yl)-N,N-dimethylpiperidine-3-carboxamide]: the IC50 was 47.3 nM.
Turning to `N#CC1(c2cccc(-c3nc4ccc(N5CCC[C@@H](C(=O)N6CCCC6)C5)nc4[nH]3)n2)CC1` [Example 156, (R)-1-(6-(5-(3-(Pyrrolidine-1-carbonyl)piperidin-1-yl)-1H-imidazo[4,5-b]pyridin-2-yl)pyridin-2-yl)cyclopropanecarbonitrile], the IC50 was 275 nM.
The same measure, in the same setting: next, `CC(c1ccccc1)c1nc2ccc(N3CCC[C@@H](C(=O)N4CCCC4)C3)nc2[nH]1` (stereo partly drawn) [Example 157, (R)-(1-(2-(1-Phenylethyl)-3H-imidazo[4,5-b]pyridin-5-yl)piperidin-3-yl)(pyrrolidin-1-yl)methanone]: 211 nM; `O=C([C@@H]1CCCN(c2ccc3nc(-c4cccc(C5CC5)n4)[nH]c3n2)C1)N1CC=CC1` [Example 158, (R)-(1-(2-(6-Cyclopropylpyridin-2-yl)-3H-imidazo[4,5-b]pyridin-5-yl)piperidin-3-yl)(2,5-dihydro-1H-pyrrol-1-yl)methanone]: 3.58 nM.

Still in this experiment, the particulars now being: read-out: DGAT2 IC50.
In the case of `Clc1cccc(-c2nc3ccc(N4CCO[C@@H](c5ccccn5)C4)nc3[nH]2)c1` [Example 152, (R)-4-(2-(3-chlorophenyl)-3H-imidazo[4,5-b]pyridin-5-yl)-2-(pyridin-2-yl)morpholine], the IC50 worked out at 285 nM.
`O=C([C@@H]1CCCN(c2ccc3nc(-c4cccc(C5CC5)n4)[nH]c3n2)C1)N1CCOCC1` [Example 153, (R)-(1-(2-(6-Cyclopropylpyridin-2-yl)-3H-imidazo[4,5-b]pyridin-5-yl)piperidin-3-yl)(morpholino)methanone]: the half-maximal inhibitory concentration (IC50) stood at 48.1 nM.
Regarding `O=C([C@@H]1CCCN(c2ccc3nc(-c4cccc(Cl)c4)[nH]c3n2)C1)N1CCOCC1` [Example 154, (R)-(1-(2-(3-Chlorophenyl)-3H-imidazo[4,5-b]pyridin-5-yl)piperidin-3-yl)(morpholino)methanone], the IC50 came to 40.5 nM.
As to `O=C([C@@H]1CCCN(c2ccc3nc(-c4cccc(OC(F)F)c4)[nH]c3n2)C1)N1CCOCC1` [Example 155, (R)-(1-(2-(3-(Difluoromethoxy)phenyl)-3H-imidazo[4,5-b]pyridin-5-yl)piperidin-3-yl)(morpholino)methanone], the half-inhibitory concentration (IC50) turned out to be 35.6 nM.
